pIC50, pKd, pKi: −log10 of the molar value.
Experiments:
Test in all cases: biochemical
[1] = target: T1, Nuclear receptor ROR-gamma (Homo sapiens, UniProt P51449)
T1 sequence (P51449 whole entry): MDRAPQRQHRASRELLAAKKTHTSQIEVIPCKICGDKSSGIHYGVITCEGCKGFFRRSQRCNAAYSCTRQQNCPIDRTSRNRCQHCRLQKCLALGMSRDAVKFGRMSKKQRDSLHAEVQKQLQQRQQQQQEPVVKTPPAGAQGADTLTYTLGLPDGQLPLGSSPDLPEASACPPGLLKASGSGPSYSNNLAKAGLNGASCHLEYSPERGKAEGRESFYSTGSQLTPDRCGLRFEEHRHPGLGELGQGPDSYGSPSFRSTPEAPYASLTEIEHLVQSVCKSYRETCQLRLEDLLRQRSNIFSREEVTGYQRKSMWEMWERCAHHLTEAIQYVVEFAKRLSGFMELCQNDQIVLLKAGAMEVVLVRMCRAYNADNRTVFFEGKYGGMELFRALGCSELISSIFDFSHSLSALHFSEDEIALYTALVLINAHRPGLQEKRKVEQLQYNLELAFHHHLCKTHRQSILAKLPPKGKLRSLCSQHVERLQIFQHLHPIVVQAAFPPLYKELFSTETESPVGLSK
Description: Allosteric inhibition of N-terminal his6-tagged human recombinant RORgamma LBD (261 to 518 residues) expressed in Sf9 insect cells assessed as inhibition constant incubated for 30 mins by fluorescence polarization assay

[2] = target: T1, Nuclear receptor ROR-gamma; remark: listed apart in the source
Description: Allosteric inhibition of N-terminal his6-tagged human recombinant RORgamma LBD (261 to 518 residues) expressed in Sf9 insect cells incubated for 30 mins by fluorescence polarization assay

[3] = target: T1, Nuclear receptor ROR-gamma; remark: listed apart in the source
Description: Binding affinity to N-terminal his6-tagged human recombinant RORgamma LBD (261 to 518 residues) expressed in Sf9 insect cells assessed as dissociation constant incubated for 30 mins by fluorescence polarization assay

[4] = target: T1, Nuclear receptor ROR-gamma; remark: listed apart in the source
Description: Binding affinity to N-terminal his6-tagged human recombinant RORgamma LBD (261 to 518 residues) expressed in Sf9 insect cells assessed as dissociation constant by SPR analysis

Row | SMILES | pKi [1] | pIC50 [2] | pKd [3] | pKd [4]
1 | O=C(O)c1ccc(-n2cc(C(=O)c3c(Cl)cccc3Cl)c3ccccc32)s1 | 6.29 | 6.02 |  | 
2 | Cc1cccc(C(=O)c2cn(-c3ccc(C(=O)O)s3)c3ccccc23)c1 | 4.10 | 3.83 |  | 
3 | Cc1ccc(C(=O)c2cn(-c3ccc(C(=O)O)s3)c3ccccc23)cc1 | 4.37 | 4.10 |  | 
4 | Cc1csc(-n2cc(C(=O)c3c(Cl)cccc3Cl)c3ccccc32)c1 |  | < 3.00 |  | 
5 | O=C(O)c1ccc(-n2cc(C(=O)c3ccccc3Cl)c3ccccc32)s1 | 5.14 | 4.87 |  | 
6 | O=C(O)c1ccc(-n2cc(C(=O)c3ccc(Cl)cc3)c3ccccc32)s1 | 4.67 | 4.40 |  | 
7 | Cc1ccccc1C(=O)c1cn(-c2ccc(C(=O)O)s2)c2ccccc12 | 4.75 | 4.48 |  | 
8 | O=C(O)c1ccc(-n2cc(C(=O)c3cccc(Cl)c3)c3ccccc32)s1 | 4.82 | 4.55 |  | 
9 | O=C(O)c1ccc(-n2cc(C(=O)c3c(Cl)cccc3C(F)(F)F)c3ccccc32)s1 | 6.04 | 5.77 |  | 
10 | O=C(O)c1ccc(-c2nn(C(=O)c3c(Cl)cccc3C(F)(F)F)c3cc(C(=O)NCCOCCOCCNC(=S)Nc4ccc5c(c4)C(=O)OC54c5ccc(O)cc5Oc5cc(O)ccc54)ccc23)cc1 |  |  | 7.29 | 6.55
11 | O=C(O)c1ccc(-n2cc(C(=O)c3c(Cl)cccc3Cl)c3ccccc32)cc1 | 8.30 | 8.05 |  | 
12 | O=C(O)c1ccc(-c2nn(C(=O)c3ccccc3)c3ccccc23)cc1 | 5.95 |  |  | 
13 | O=C(O)c1ccc(-n2cc(C(=O)c3ccccc3)c3ccccc32)s1 | 3.99 | 4.71 |  | 
14 | Cc1cc(-n2cc(C(=O)c3c(Cl)cccc3Cl)c3ccccc32)sc1C(=O)O | 5.77 | 5.51 |  | 

From ChEMBL document CHEMBL5528080, “Discovery of RORγ Allosteric Fluorescent Probes and Their Application: Fluorescence Polarization, Screening, and Bioimaging” (J Med Chem, 2024)
